Results as given in US20120142109A1, “METHOD FOR PRODUCING T CELL POPULATION UNDER PRESENCE OF RETINOIC ACID” (priority 2009, published 2012).

Key:
Type in all cases: cell-based, human
[1] = test system: T2A24 cell pulsed with MAGE-A4; assay: Specific cytotoxic activity of gene-transferred cells, Calcein release
Description: Analysis of cytotoxicity of the gene-transferred cell on a MAGE-A4-derived peptide p143 was carried out. […] The suspension was cultured at 37° C. for 1 hour. The cells were washed with a medium not containing Calcein-AM, and mixed with a 10-fold amount of K562 cells (ATCC CCL-243) to prepare Calcein-labeled target cells. The K562 cells were used in order to exclude nonspecific cytotoxic activity due to NK cells commingling with responder cells. The cells on the 10th day after initiation of culture as effector cells were stepwisely diluted with a RPMI 1640 medium containing 10% FBS so as to be 1×10^5 to 1×10^6 cells/mL. Then, 100 μL/well of the dilution was dispended into each well of a 96-well cell culture plate. The Calcein-labeled target cells were adjusted to 1×10^5/mL and added to the wells at 100 μL/well. […] From the each well, 100 μL of the culture supernatant was removed, and the amount of Calcein released into the culture supernatant was measured with a fluorescent plate reader (485 nm/538 nm). “Specific cytotoxic activity (%)” was calculated according to the following mathematical formula 1.
Specific cytotoxic activity(%)=[{(measured value of each well)−(minimum released amount)}/{(maximum released amount)−(minimum released amount)}]×100 [Mathematical formula 1] […]

[2] = test system: gene-transferred cell; assay: Provirus copy number of the transferred gene; conditions: Example 3, FIG. 11; ZsGreen gene, virus-bound plate; 10 nM retinoic acid; 7th day
Description: The provirus copy number of the transferred gene in the gene-transferred cell was measured with Provirus Copy Number Detection Primer Set. Human (manufactured by TAKARA BIO INC.). In FIG. 6, the ordinate axis indicates the copy number of the transferred gene in a gene-transferred cell. As a result, the copy number was increased by a combination of stimulation by an anti-CD3 antibody alone or fibronectin fragment/anti-CD3 antibody stimulation with addition of retinoic acid, and the increase of the copy number correlated with increase in gene transfer efficiency.
The results of measurement of the copy number of the transferred gene in the gene-transferred cell into which the gene was transferred using the virus-bound plate for gene transfer are shown in FIG. 11. In FIG. 11, the ordinate axis indicates the copy number of the transferred gene in the gene-transferred cell. As a result, the copy number under the combination condition of stimulation by an anti-CD3 antibody alone or fibronectin fragment/anti-CD3 antibody stimulation with addition of retinoic acid was about 2 times the copy number under the condition of no addition of retinoic acid. The copy number correlated with gene transfer efficiency.
The provirus copy number of the transferred gene in the cultured cells was measured using Provirus Copy Number Detection Primer Set. Human (manufactured by TAKARA BIO INC.). […]

[3] = test system: CD8 single positive and CD4 single positive cells; assay: Proportion of ZsGreen positive cells by flow cytometry; conditions: Example 3, FIG. 9; gene transfer using virus-bound (fibronectin fragment) plate; 10 nM retinoic acid; 7th day
Description: A gene transfer operation was carried out as follows. […] The plate was cultured at 37° C. for 4 hours in a CO2 incubator. The cells after culturing were suspended at 0.1×10^6 cells/mL in a GT-T503 medium containing 1% autologous plasma, 720 IU/mL IL-2, 0.2% HSA, 2.5 μg/mL Fungizone and 10 nM retinoic acid. The resulting suspension was seeded on a 12-well plate, and cultured at 37° C. for 3 days. At the same time, a gene transfer operation and cell culture after gene transfer were similarly carried out using a cell suspension not containing retinoic acid as a control.
Regarding gene transfer using a virus-bound plate for gene transfer, the cell growth rate was measured on the 4th and 7th days, and cell surface markers, the proportion of ZsGreen positive cells and the copy number of a transferred gene were measured on the 7th day.
After initiation of stimulation of the PBMC, the cells on the 7th day in the case of gene transfer using the virus-bound plate for gene transfer, and the cells on the 6th day in the case of gene transfer by a polybrene method were reacted with a PE-Cy7-labeled anti-human CD4 antibody or an APC-Cy7-labeled anti-human CD8 antibody (manufactured by Becton Dickinson) at 4° C. for 20 minutes, washed and, then subjected to flow cytometry analysis using FACScant (manufactured by Becton Dickinson).

[4] = test system: PBMC; assay: Cell growth rate relative to cell number at initiation of culture; conditions: Example 2, FIG. 2; fibronectin fragment/anti-CD3 antibody stimulation compared with anti-CD3 antibody alone, regardless of presence or absence of retinoic acid
Description: A PBMC prepared from a healthy person from whom informed consent had been obtained was suspended at 0.18×10^6 cells/mL in a GT-T503 medium containing 1% autologous plasma, 720 IU/mL IL-2, 0.2% HSA, 2.5 μg/mL Fungizone and 10 nM retinoic acid. The suspension was added to the fibronectin fragment/anti-CD3 antibody-adherent plate or the anti-CD3 antibody-adherent plate at 2.65 mL/well. As controls, a cell suspension not containing retinoic acid was added to the plates. Each plate was cultured at 37° C. for 4 days in a CO2 incubator.
A gene transfer operation was carried out as follows. The PBMC which had been stimulated with an anti-CD3 antibody alone or a fibronectin fragment/an anti-CD3 antibody for 4 days was added to the virus-bound plate at 0.8×10^6 cells/2.0 mL/well. This plate was cultured at 37° C. overnight in a CO2 incubator. […]
On the 7th day after initiation of stimulation of the PBMC, the cell was seeded at 0.1×10^6 cells/mL, and cultured until the 10th day. The cell growth rate was measured on the 4th, 5th, 7th and 10th days. On the 4th day, cell surface markers before the cell was transferred to the virus-bound plate were measured. On the 10th day, cell surface markers, expression of a transferred TCR and the copy number of a transferred gene were measured. […]

Row | Compound | cytotoxic activity on the specific target cells ([1]; Example 4, FIG. 15, retinoic acid stimulation group vs absence, cells on 10th day, each E/T ratio) | cytotoxic activity on the specific target cells ([1]; Example 5, FIG. 22, RR, OR and R- groups vs O-, E/T 1:1, cells on 11th day) | copy number of the transferred gene relative to no addition of retinoic acid [2] | increase of proportion of ZsGreen positive cells as compared with no addition of retinoic acid [3] [fold] | cell growth rate [4]
1 | CC1=C(/C=C/C(C)=C/C=C/C(C)=C/C(=O)O)C(C)(C)CCC1 [retinoic acid] | high | higher | about 2 times | 1.5 | 
2 | fibronectin fragment: recombinant fibronectin fragment CH-296, commercially available as RetroNectin (TAKARA BIO INC.) |  |  |  |  | higher
